According to patent publication US8957074B2 (Novartis AG, priority 2010, dated 2015):
Where two headings read alike, the source gives them in different places.

Legend:
CDK4/cyclin D1 = CDK4/cyclin D1 (Homo sapiens (Human), UniProt P11802); assay: CDK4/cyclin D1 enzymatic activity assay (TR-FRET, phosphorylation of pRb at Ser780); format: biochemical; settings: 0.3 nM CDK4/cyclin D1, 150 nM biotin-pRb (773-924), 3 μM ATP, 60 min at 22° C.; read-out: Biochemical CDK4 enzyme IC50
Procedure: CDK4/Cyclin D1 Enzymatic Activity Assay
An assay for monitoring CDK4/cyclin D1-catalyzed phosphorylation of pRb at the Ser780 site was performed using TR-FRET in a 384-well format, and was used for IC50 determination and kinetic analysis. […] 3 μM ATP was added last to initiate the reaction. The reaction was quenched with 10 μL of 240 mM EDTA-Na (pH 8.0) after 60 min incubation at 22° C.
Human CDK4/cyclin D1 was expressed in Sf21 cells via baculovirus infection.

CDK1/cyclin B = CDK1/cyclin B (Homo sapiens (Human), UniProt P06493); assay: CDK1/cyclin B enzymatic activity assay (IMAP-FP); format: biochemical; settings: 100 nM Tamra Histone-H1 peptide, 20 μM ATP, 120 min at room temperature, read-out: Biochemical CDK1 enzyme IC50
Source text: CDK1/Cyclin B Enzymatic Activity Assay
A 384-well microtiter IMAP-FP™ (Molecular Devices Trade Mark Technology) endpoint assay was used for CDK1/cyclin B kinase activity measurements. The same assay was used for IC50 determination of small molecule inhibitors.

[1] = tested on: phosphorylation of pRb at the Ser780 site in JeKo-1 mantle cell lymphoma cells; assay: CDK4 cellular assay: ELISA of pRb phosphorylation at Ser780 in JeKo-1 cells; format: cell-based; settings: Homo sapiens
Source text: Cell-based assay measuring phosphorylation levels of pRb at the Ser780 site using an enzyme-linked immunosorbent assay (ELISA) method (Table 6). JeKo-1, a mantle-cell lymphoma cell line, was selected for use in this assay due to its known translocation and subsequent overexpression of cyclin D1. [Ref: Amin, H. M.; McDonnell, T. J.; Medeiros, L. J.; Rassidakis, G. Z.; Leventaki, V.; O'Connor, S. L.; Keating, M. J.; Lai, R. Characterization of 4 mantle cell lymphoma cell lines—Establishment of an in vitro study model. Arch. Pathol. Lab.
Cells were allowed to adhere overnight. […] 10 μL of the dilution were then transferred to the cell culture plate, resulting in a final concentration range of 10 μM to 2 nM. The incubation was carried out at 37° C. with 5% CO2. All compounds were tested in triplicates at each concentration. […] The plates were placed at 4° C. with vigorous shaking for 5 min to lyse the cells. The resulting lysates contained approximately 1 μg/μL of protein.
Plates were incubated overnight at 4° C. with rocking. […] After shaking for 10 minutes, the Superblock solution was replaced with fresh Superblock and plates were incubated on a shaker for an additional 50 min. After blocking, 30 μL of JeKo-1 cell lysate, containing approximately 10 μg total protein, were added to wells in triplicate. […] For all incubation steps, plates were covered with Uniseal plate sealers. […] Next, 50 μL of a 1:2500 dilution of donkey-anti-rabbit HRP (Promega catalog no. W401B) in PBS/10% Superblock were added, and plates were incubated for 30 min at room temperature on a shaker. Plates were again washed as described above. […] After incubation, 50 μL 2 M sulfuric acid were added to plates to top the reaction, and absorbance was determined on a SpectraMax (Molecular Devices, Sunnydale, Calif.) within 15 minutes at 450 nm. All washes were performed using a Bio-Tek plate washer.
The Total Rb ELISA kit (Invitrogen catalog no. KH00011) was used to determine the levels of total pRb. This kit uses wells precoated with a proprietary total pRb antibody for capture. All reagents listed, with the exception of cell lysate, were included in the kit. The nature of the antibodies used for capture and detection was labeled as proprietary and not disclosed. 10 μg of cell lysate was loaded into the wells and volume adjusted to 50 μL with standard dilution buffer. Plates were sealed with film included in the kit and incubated for 2 h at room temperature on a shaker. Plates are then manually washed three times with 250 μL wash buffer. 50 μL of proprietary primary antibody (pre-conjugated to biotin) was added to wells and incubated for 1 h at room temperature on a shaker. Then plates were again washed as noted above. The secondary antibody (HRP pre-conjugated to Streptavidin) was diluted 1:100 in Streptavidin-HRP diluent buffer and 50 μL was added to each well. Plates were then incubated for 30 min. Afterwards, plates were washed four times with buffer as outlined above. Finally, 50 μL stabilized Chromogen was added per well and plates were incubated for 15 min, at which point 50 μL of stop solution was added. Plates were then read on a Spectramax at 450 nm.
The total pRb levels were then used to adjust the p-pRb % inhibition values to account for any loss of signal due to the absence of the pRb protein itself, and the IC50 values obtained from the adjusted % inhibitions represent normalized cellular p-pRb IC50.

[2] = JeKo-1, JeKo-1 cells, p-pRb % inhibition adjusted with total pRb levels, read-out: Normalized cellular ppRb inhibition IC50
[3] = JeKo-1, JeKo-1 cells, p-pRb Ser780 ELISA, non-normalized, read-out: Cellular ppRb inhibition IC50
[4] = JeKo-1, read-out: Cellular ppRb inhibition IC50
[5] = JeKo-1, read-out: Normalized cellular ppRb inhibition IC50
[6] = JeKo-1 cells, p-pRb % inhibition adjusted with total pRb levels, read-out: Normalized cellular ppRb inhibition IC50
[7] = JeKo-1 cells, p-pRb Ser780 ELISA, non-normalized, read-out: Cellular ppRb inhibition IC50

Chain of CDK1/cyclin B (P06493 whole entry, species assumed): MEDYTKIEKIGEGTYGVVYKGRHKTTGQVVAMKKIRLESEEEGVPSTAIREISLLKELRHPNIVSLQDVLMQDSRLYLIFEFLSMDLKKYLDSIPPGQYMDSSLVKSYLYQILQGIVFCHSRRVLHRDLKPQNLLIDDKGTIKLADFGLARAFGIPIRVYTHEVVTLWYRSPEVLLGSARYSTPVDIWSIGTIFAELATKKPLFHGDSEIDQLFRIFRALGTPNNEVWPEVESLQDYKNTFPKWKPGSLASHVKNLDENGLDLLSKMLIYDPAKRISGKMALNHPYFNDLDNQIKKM
Chain of CDK1/cyclin B (P14635 whole entry partner, species assumed): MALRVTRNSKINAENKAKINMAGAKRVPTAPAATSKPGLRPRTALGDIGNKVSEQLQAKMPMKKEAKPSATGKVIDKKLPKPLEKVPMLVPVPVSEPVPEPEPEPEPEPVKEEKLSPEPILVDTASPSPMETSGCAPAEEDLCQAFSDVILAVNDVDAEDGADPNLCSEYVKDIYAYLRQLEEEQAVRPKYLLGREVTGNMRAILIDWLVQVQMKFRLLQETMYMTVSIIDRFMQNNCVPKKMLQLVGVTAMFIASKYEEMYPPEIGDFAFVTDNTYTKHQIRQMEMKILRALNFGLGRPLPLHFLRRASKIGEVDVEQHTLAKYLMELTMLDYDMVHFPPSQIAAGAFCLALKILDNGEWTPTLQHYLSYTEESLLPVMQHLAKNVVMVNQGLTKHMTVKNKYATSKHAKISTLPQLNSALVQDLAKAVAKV
Chain of CDK4/cyclin D1 (P11802 whole entry): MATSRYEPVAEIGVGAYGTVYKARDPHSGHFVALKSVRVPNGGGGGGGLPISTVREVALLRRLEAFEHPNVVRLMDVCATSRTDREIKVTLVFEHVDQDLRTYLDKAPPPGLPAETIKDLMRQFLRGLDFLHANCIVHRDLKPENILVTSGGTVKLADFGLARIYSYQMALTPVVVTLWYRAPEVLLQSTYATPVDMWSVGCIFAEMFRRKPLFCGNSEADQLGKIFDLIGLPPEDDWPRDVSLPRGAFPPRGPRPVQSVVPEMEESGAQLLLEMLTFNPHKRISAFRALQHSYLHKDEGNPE
Chain of CDK4/cyclin D1 (P24385 whole entry partner): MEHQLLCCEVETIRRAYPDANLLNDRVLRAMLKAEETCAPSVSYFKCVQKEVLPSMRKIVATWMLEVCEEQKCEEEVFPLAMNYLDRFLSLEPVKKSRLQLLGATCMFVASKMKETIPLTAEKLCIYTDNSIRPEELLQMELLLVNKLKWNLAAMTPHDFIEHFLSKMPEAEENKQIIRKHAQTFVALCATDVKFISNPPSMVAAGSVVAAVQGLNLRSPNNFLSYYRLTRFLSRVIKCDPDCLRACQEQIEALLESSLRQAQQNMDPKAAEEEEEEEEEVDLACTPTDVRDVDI

SMILES: CN(C)C(=O)c1cc2cnc(Nc3ccc(C(=O)N4CC5CCC(C4)N5)cn3)nc2n1[C@@H]1C[C@H]2CC[C@@H]1C2 (stereo in doubt) [Example 36, 7-(1R,2R,4S)-Bicyclo[2.2.1]hept-2-yl-2-[5-(3,8-diaza-bicyclo[3.2.1]octane-3-carbonyl)-pyridin-2-ylamino]-7H-pyrrolo[2,3-d]pyrimidine-6-carboxylic acid dimethylamide]
- IC50 (CDK4/cyclin D1): 3 nM
- IC50 (CDK1/cyclin B; […] CDK1/cyclin B): 13000 nM
- IC50 [1, 2]: 28 nM
- IC50 [1, 3]: 23 nM

SMILES: CN(C)C(=O)c1cc2cnc(Nc3ccc(N4C[C@H]5CNC[C@H]5CC4=O)cn3)nc2n1C1CCCCCC1 (stereo in doubt) [Example 88, 7-cycloheptyl-N,N-dimethyl-2-(5-(cis-6-oxotetrahydro-1H-pyrrolo[3,4-c]pyridin-5(6H, 7H, 7a H)-yl)pyridin-2-ylamino)-7H-pyrrolo[2,3-d]pyrimidine-6-carboxamide]
- IC50 (CDK4/cyclin D1): 5 nM
- IC50 (CDK1/cyclin B; […] CDK1/cyclin B): 2510 nM
- IC50 [1, 2]: 11 nM
- IC50 [1, 3]: 7 nM

SMILES: CN(C)C(=O)c1cc2cnc(Nc3ccc(N4C[C@@H]5CNC[C@@H]5CC4=O)cn3)nc2n1C1CCCCCC1 (stereo in doubt) [Example 89, 7-cycloheptyl-N,N-dimethyl-2-(5-(cis-6-oxotetrahydro-1H-pyrrolo[3,4-c]pyridin-5(6H,7H,7aH)-yl)pyridin-2-ylamino)-7H-pyrrolo[2,3-d]pyrimidine-6-carboxamide]
- IC50 (CDK4/cyclin D1): 3 nM
- IC50 (CDK1/cyclin B; […] CDK1/cyclin B): 6480 nM
- IC50 [1, 2]: 4 to 15 nM
- IC50 [1, 3]: 5 to 7 nM

SMILES: CN(C)C(=O)c1cc2cnc(Nc3ccc(N4C[C@H]5CNC[C@H]5CC4=O)cn3)nc2n1C1CCCC1 (stereo in doubt) [Example 91, 7-cyclopentyl-N,N-dimethyl-2-(5-(cis-6-oxotetrahydro-1H-pyrrolo[3,4-c]pyridin-5(6H,7H,7aH)-yl)pyridin-2-ylamino)-7H-pyrrolo[2,3-d]pyrimidine-6-carboxamide]
- IC50 (CDK4/cyclin D1): 5 to 7 nM
- IC50 (CDK1/cyclin B; 0.25 nM CDK1/cyclin B): 13300 to 14900 nM
- IC50 [1, 4]: 10 to 27 nM
- IC50 [1, 5]: 22 to 74 nM

SMILES: CN(C)C(=O)c1cc2cnc(Nc3ccc(N4C[C@@H]5CNC[C@@H]5CC4=O)cn3)nc2n1C1CCCC1 (stereo in doubt) [Example 92, 7-cyclopentyl-N,N-dimethyl-2-(5-(cis-6-oxotetrahydro-1H-pyrrolo[3,4-c]pyridin-5(6H,7H,7aH)-yl)pyridin-2-ylamino)-7H-pyrrolo[2,3-d]pyrimidine-6-carboxamide]
- IC50 (CDK4/cyclin D1): 5 to 7 nM
- IC50 (CDK1/cyclin B; […] CDK1/cyclin B): 25100 nM
- IC50 [1, 4]: 5 to 20 nM
- IC50 [1, 5]: 19 to 38 nM

SMILES: CN1C[C@@H]2CN(c3ccc(Nc4ncc5cc(C(=O)N(C)C)n(C6CCCC6)c5n4)nc3)C(=O)[C@@H]2C1 (stereo in doubt) [Example 95, 7-cyclopentyl-N,N-dimethyl-2-(5-((3aR,6aS)-5-methyl-1-oxohexahydropyrrolo[3,4-c]pyrrol-2(1H)-yl)pyridin-2-ylamino)-7H-pyrrolo[2,3-d]pyrimidine-6-carboxamide]
- IC50 (CDK4/cyclin D1): 7 nM
- IC50 (CDK1/cyclin B; 0.25 nM CDK1/cyclin B): 14000 to 14300 nM
- IC50 [1, 2]: 21 to 65 nM
- IC50 [1, 3]: 4 to 20 nM

SMILES: CN(C)C(=O)c1cc2cnc(Nc3ccc(C(=O)N4C[C@H]5CNC[C@@H](C4)C5O)cn3)nc2n1C1CCCC1 (stereo partly drawn) [Example 1, 7-Cyclopentyl-2-(5-((1R,5S)-9-hydroxy-3,7-diazabicyclo[3.3.1]nonane-3-carbonyl)pyridin-2-ylamino)-N,N-dimethyl-7H-pyrrolo[2,3-d]pyrimidine-6-carboxamide]
- IC50 (CDK4/cyclin D1): 17 nM
- IC50 (CDK1/cyclin B; […] CDK1/cyclin B): > 15000 nM
- IC50 [1, 6]: 538 nM
- IC50 [1, 7]: 364 nM

SMILES: CN(C)C(=O)c1cc2cnc(Nc3ccc(C(=O)N4C[C@H]5CNC[C@@H](C4)C5O)cn3)nc2n1C1CCCCCC1 (stereo partly drawn) [Example 2, 7-cycloheptyl-2-(5-((1R,5S)-9-hydroxy-3,7-diazabicyclo[3.3.1]nonane-3-carbonyl)pyridin-2-ylamino)-N,N-dimethyl-7H-pyrrolo[2,3-d]pyrimidine-6-carboxamide]
- IC50 (CDK4/cyclin D1): 5 nM
- IC50 (CDK1/cyclin B; […] CDK1/cyclin B): > 15000 nM
- IC50 [1, 2]: 84 nM
- IC50 [1, 3]: 66 nM

SMILES: CN(C)C(=O)c1cc2cnc(Nc3ccc(C(=O)N4CC5CC4CN5)cn3)nc2n1C1CCCCCC1 (stereo not shown) [Example 3, 7-Cycloheptyl-2-[5-(2,5-diaza-bicyclo[2.2.1]heptane-2-carbonyl)-pyridin-2-ylamino]-7H-pyrrolo[2,3-d]pyrimidine-6-carboxylic acid dimethylamide]
- IC50 (CDK4/cyclin D1): 1 nM
- IC50 (CDK1/cyclin B; 0.25 nM CDK1/cyclin B): 4200 to 5140 nM
- IC50 [1, 6]: 29 to 33 nM
- IC50 [1, 7]: 19 to 26 nM

SMILES: CN(C)C(=O)c1cc2cnc(Nc3ccc(C(=O)N4CC5CCC(C4)N5)cn3)nc2n1C1CCCCCC1 [Example 4, 2-(5-(3,8-diazabicyclo[3.2.1]octane-3-carbonyl)pyridin-2-ylamino)-7-cycloheptyl-N,N-dimethyl-7H-pyrrolo[2,3-d]pyrimidine-6-carboxamide]
- IC50 (CDK4/cyclin D1): 4 nM
- IC50 (CDK1/cyclin B; […] CDK1/cyclin B): 7060 nM
- IC50 [1, 2]: 10 nM
- IC50 [1, 3]: 9 nM

SMILES: CN(C)C(=O)c1cc2cnc(Nc3ccc(C(=O)N4CCC5(CC4)CNC5)cn3)nc2n1C1CCCCCC1 [Example 5, 2-(5-(2,7-diazaspiro[3.5]nonane-7-carbonyl)pyridin-2-ylamino)-7-cycloheptyl-N,N-dimethyl-7H-pyrrolo[2,3-d]pyrimidine-6-carboxamide]
- IC50 (CDK4/cyclin D1): 8 to 16 nM
- IC50 (CDK1/cyclin B; […] CDK1/cyclin B): > 15000 nM
- IC50 [1, 6]: 117 nM
- IC50 [1, 7]: 115 nM

SMILES: CN(C)C(=O)c1cc2cnc(Nc3ccc(C(=O)N4CC5CCC(C4)C5(C)O)cn3)nc2n1C1CCCCCC1 (stereo not shown) [Example 6, 7-cycloheptyl-2-(5-(8-hydroxy-8-methyl-3-azabicyclo[3.2.1]octane-3-carbonyl)pyridin-2-ylamino)-N,N-dimethyl-7H-pyrrolo[2,3-d]pyrimidine-6-carboxamide]
- IC50 (CDK4/cyclin D1): 187 nM
- IC50 (CDK1/cyclin B; […] CDK1/cyclin B): > 15000 nM
- IC50 [1, 6]: 889 nM
- IC50 [1, 7]: 148 nM

SMILES: CN(C)C(=O)c1cc2cnc(Nc3ccc(C(=O)N4CC5CCC4C5O)cn3)nc2n1C1CCCCCC1 [Example 7, 7-cycloheptyl-2-(5-((1R,4R,7R)-7-hydroxy-2-azabicyclo[2.2.1]heptane-2-carbonyl)pyridin-2-ylamino)-N,N-dimethyl-7H-pyrrolo[2,3-d]pyrimidine-6-carboxamide]
- IC50 (CDK4/cyclin D1): 21 nM
- IC50 (CDK1/cyclin B; […] CDK1/cyclin B): 17600 nM
- IC50 [1, 6]: 288 nM
- IC50 [1, 7]: 127 nM
